Laboratory results published in patent US8697731B2, “Derivatives of 2-pyridin-2-yl-pyrazol-3(2H)-one, preparation and therapeutic use thereof” (Sanofi, priority 2008, dated 2014).

Key:
[1] = system: VEGF; test: Measurement of the secretion of VEGF by Hep3B hepatocytes (ELISA); assay type: cell-based; conditions: Homo sapiens, supernatant of Hep3B cells, 18 hours under normoxia, concentration that produces 50% of the maximum response of this same compound
Procedure: (§1) The test is an ELISA test for measuring VEGF and EPO in the supernatant of Hep3B cells treated under hypoxia or with deferoxamine as controls or with the potential HIF activators. The test was adapted to a 96-well plate, allowing greater compound screening capacity.
(§2) 2.3.1 Experiment Plan • 1) Inoculation of the cells on D0 • 2) Adherence for 6 hours under normoxia • 3) Preparation and addition of the products (Biomek 2000 and FX) • 4) Incubation under normoxia for 18 hours • 5) EPO and VEGF assay in the supernatant on D+1
(§3) The cells are subcultured into 100 μl of culture medium (10% FCS) in black, opaque-bottomed 96-well plates (reference Costar 3916) at 30000 cells/well, with Multidrop.
(§4) The test products are prepared at 10^−2M in 100% DMSO and then diluted to […] in medium containing 0.1% FCS (6 μl in 194 μl of MEM). 200 μl of each compound are deposited in column 12 of a 96-well plate. Dilution ranges from 3×10^−4M to 3×10^−8M are prepared with Biomek 2000 (programme: range of 9 points in series). 100 μl of MEM 0.1% FCS and Deferoxamine 5×10^−3M are added as controls to column 3 and, respectively, to wells A,B,C,D & wells E,F,G,H
(§5) The medium of the cells inoculated the day before into 96-well plates is changed for 90 μl of medium containing 0.1% FCS and 10 μl are distributed with FX 96 from the 96-well DL plates to the cell plates.
(§6) The cell plates thus treated are placed for 18 hours in an incubator at 37° C. (ambient O2, 6% CO2).
(§7) The supernatants (80 μl) of the Hep3B cells in the 96-well plates treated with the potential HIF activators are recovered with a multichannel pipette for simultaneous assay of the VEGF and the EPO by ELISA according to the supplier's instructions (Kit EPO Mesoscale (ref K15122B-2)).
(§8) The activating activity of a compound with respect to HIF is given by the concentration that produces 50% of the maximum response of this same compound in Table IV.

[2] = system: HIF1-alpha; test: Measurement of the stabilization of HIF1-alpha in HEKEA cells (beta-galactosidase complementation); assay type: cell-based, human; conditions: HEKEA_HIF1-alphaPLBL cells, 6 hours under normoxia, luminescence; molar concentration that produces 50% of the maximum response of this same compound
Description: Furthermore, a subject of the invention is also a uniform test for the direct measurement by beta-galactosidase complementation of the amount of HIF1-alpha protein in the nucleus of cells, preferably HEK cells, after treating the said cells with one or more test compounds, which consists in: • (a) inoculating, preferably in 384-well plates, the said cells in a suitable culture medium, preferably 1% foetal calf serum (abbreviated as FCS); • (b) adding the test compound(s) at a suitable concentration in a suitable solvent to the cells previously inoculated in the said culture medium; preferably the test compounds are diluted in 0.1% FCS; • (c) incubating the said cells thus prepared in an indicator at about 37° C., advantageously for about 6 hours; • (d) lysing the cells with a lysis buffer containing a chemiluminescent substrate for beta-galactosidase; • (e) incubating in the absence of light, before reading and measuring the luminescence, which is a function of the beta-galactosidase activity.
The test is a cell test based on the principle of enzyme complementation, the enzyme used herein being beta-galactosidase. HEKEA cells are HEK cells stably expressing, and restricted in their nucleus, mutant beta-galactosidase (omega fragment, also known as EA) (line sold by DiscoverX). This construct makes it possible to obtain beta-galactosidase activity only when the protein comprising the Prolabel complementation fragment has migrated into the nucleus.
The protein of interest comprising the Prolabel fragment is in this case an HIF1-alpha or HIF1-alpha mutated at the two prolines 402 and 564 replaced with alanines, is C-terminal fused via molecular biology (DiscoverX vector sold by Clontech) with the small complementation peptide fragment (Prolabel or ED, about 4 kDa). The vector coding for the chimeric protein HIF1-alpha_Prolabel is then transfected into HEKEA cells to obtain stable clones (HEKEA_HIF1-alphaPLBL).
The amount of C-terminal Prolabel-“labelled” HIF1-alpha protein obtained after treating the cells to hypoxia or compounds that are potentially HIF activators is measured by adding to the cells a lysis buffer containing a chemiluminescent substrate for beta-galactosidase.
The measurement of the beta-galactosidase activity will be proportional to the amount of Prolabel and thus of HIF1-alpha that has migrated into the nucleus of the cells.
1.3.1 Experiment Plan • 1) Inoculation of the cells on D0 • 2) Adherence for 24 hours under normoxia • 3) Preparation and addition of the products (Biomek 2000 and FX) on D+1 • 4) Incubation under normoxia for 6 hours • 5) Reading of the plates (by luminescence)
The cells are inoculated with Multidrop in white, opaque-bottomed 384-well plates (Greiner ref 3704), in 30 μl of culture medium (1% FCS) a 10000 cells/well (cell plate).
The test products are prepared at 3×10^−2 M in 100% DMSO and then diluted to 3×10^−4 M in medium containing 0.1% FCS (10 μl in 990 μl of MEM). They are then deposited by hand into column 12 of a round-bottomed 96-well plate (200 μl of each compound) known as the dilution plate (dl). The complete DL plate of 3×10^−4 M to 10^−9 M is then prepared with Biomek 2000 (programme: range of 10 points in series). For the references and controls, 100 μl of DMEM containing 0.1% FCS are added to column 1, 100 μl of Deferoxamine 10^−3M to column 2, wells A B C D and 100 μl of Deferoxamine 5×10^−3 M to column 2, wells E F G H.
3.3 μL are taken from the DL plate by pipetting with a Biomek FX 96 and placed in horizontal duplicate (columns 1 to 24) in each 384-well cell plate (HEKEA_HIF1-alphaPLBL cell plate).
The cells are then placed for 6 hours in an incubator at 37° C. (ambient O2, 6% CO2).
The kit used is the Prolabel chemiluminescent kit (Ref 93-0001 DiscoverX). […]

[3] = system: EPO; test: Measurement of the secretion of EPO by Hep3B hepatocytes (ELISA); assay type: cell-based; conditions: Homo sapiens, supernatant of Hep3B cells, 18 hours under normoxia, concentration that produces 50% of the maximum response of this same compound
Procedure: as §1, §2, §3, §4, §5, §6, §7, §8

Row | Compound | EC50 [1] | EC50 [2] | melting point | EC50 [3]
1 | O=c1c2c([nH]n1-c1ccc(S(=O)(=O)N3CCCCCC3)cn1)CSC2 [Compound 26, 2-[5-(azepan-1-ylsulfonyl)pyridin-2-yl]-1,2,4,6-tetrahydro-3H-thieno[3,4-c]pyrazol-3-one] | 1300 nM | 1500 nM | 236 °C | 1000 nM
2 | CCN(c1ccccc1)S(=O)(=O)c1ccc(-n2[nH]c3c(c2=O)CN(C(=O)OC(C)(C)C)CC3)nc1 [Compound 28, tert-butyl 2-[5-[ethyl(phenyl)sulfamoyl]pyridin-2-yl]-3-oxo-1,2,3,4,6,7-hexahydro-5H-pyrazolo[4,3-c]pyridine-5-carboxylate] | 1000 nM | 1600 nM | 192 °C | 1000 nM
3 | CCN(c1ccccc1)S(=O)(=O)c1ccc(-n2[nH]c3c(c2=O)CN(C(C)=O)CC3)nc1 [Compound 29, 6-(5-acetyl-3-oxo-1,3,4,5,6,7-hexahydro-2H-pyrazolo[4,3-c]pyridin-2-yl)-N-ethyl-N-phenylpyridine-3-sulfonamide] | 2600 nM | 2500 nM | 118 °C | 2500 nM
